Where two headings read alike, the source gives them in different places.
Assays:
[1] = Precipitate of chromogen on pre-plated media; format: physicochemical; details: After 1 week
Method: 50 μl of each chromogen solution was added to the surface of each of the following pre-plated media (one chromogen solution per plate):
The solution was dispersed using a spreader and allowed to dry 3-4 hours in a hood.

S. milleri (stmi) = assay: Example 3: colony color on chromogenic TSA II with 5% sheep blood (chromogen in medium); format: cell-based
Candida albicans (caal) = assay: as above; format: cell-based
[2] = tested on: E. coli (non-O157) (esco); format: cell-based
[3] = tested on: Pseudomonas aeruginosa (psae); assay: Example 3: colony color on chromogenic TSA II with 5% sheep blood (chromogen in medium); format: cell-based; details: for Colony Color: CO2
milu 9341 = assay: as above; format: cell-based
cakr 34135 = assay: as above; format: cell-based
E. faecium (enfu) = assay: as above; format: cell-based; details: for Colony Color: enfu 49032
[4] = tested on: Klebsiella pneumoniae (klpn); assay: as above; format: cell-based
Salmonella spp. (sasp) = format: cell-based; details: for Colony Color: CO2
S pyogenes (stpy) = assay: Example 3: colony color on chromogenic TSA II with 5% sheep blood (chromogen in medium); format: cell-based; details: for Colony Color: 21 h; for Colony Color on Various Chromogenic TSA II with 5% Sheep Blood: 18 h
S. pneumoniae (stpn) = assay: as above; format: cell-based; details: for Colony Color on Various Chromogenic TSA II with 5% Sheep Blood: 18 h
[5] = tested on: Streptococcus agalactiae (stag); assay: as above; format: cell-based
[6] = tested on: Aeromonas hydrophilia (aehy); assay: as above; format: cell-based; details: for Colony Color: CO2
[7] = tested on: Entercoccus faecalis (enfa); assay: as above; format: cell-based
[8] = tested on: Serratia marcescens (sema); assay: as above; format: cell-based; details: for Colony Color: sema 13880, CO2
[9] = tested on: Staphylococcus aureus (stau); assay: as above; format: cell-based
[10] = tested on: Streptococcus pneumoniae 6303; assay: Example 1: growth and colony color on plates surface-spread with chromogen; format: cell-based
[11] = tested on: Branhamella catarrhalis (brca); assay: Example 3: colony color on chromogenic TSA II with 5% sheep blood (chromogen in medium); format: cell-based; details: for Colony Color: CO2
[12] = chromogenic TSA II with 5% Sheep Blood, 0.1 g/l
[13] = chromogenic TSA II with 5% Sheep Blood, 0.1 g/l, 2 strains tested
[14] = chromogenic TSA II with 5% Sheep Blood, 0.1 g/l, 3 strains tested
[15] = chromogenic TSA II with 5% Sheep Blood, 0.1 g/l, 1 strain tested
[16] = chromogenic TSA II with 5% Sheep Blood, 0.1 g/l, 6 strains tested

CC(=O)N[C@H]1[C@H](Oc2c[nH]c3ccc(Br)c(Cl)c23)O[C@H](CO)[C@H](O)[C@@H]1O [X-Acglmn, 5-Br-4-Cl-3-indolyl-N-Acetyl-β-D-galactosaminide]
0: Colony Color (Summary) (S. milleri (stmi); [13]) | Colony Color on Various Chromogenic TSA II with 5% Sheep Blood (S. milleri (stmi); stmi 6242, CO2, 18 h) | Colony Color (S. milleri (stmi); stmi 6249, air, 21 h) | Colony Color (Candida albicans (caal); caal 10231, air, 24 h) | Colony Color (Summary) [2, 14] | Colony Color ([2]; esco 11775, CO2, 18 h) | Colony Color ([2]; esco 11775, CO2, 21 h) | Colony Color ([2]; esco 25922, CO2, 24 h) | Colony Color ([2]; esco 25922, air, 24 h) | Colony Color ([2]; esco 33605, CO2, 18 h) | Colony Color ([2]; esco 33605, CO2, 21 h) | Colony Color (Summary) [3, 14] | Colony Color ([3]; psae 9027, 18 h) | Colony Color ([3]; psae 9027, 21 h) | Colony Color ([3]; psae 15442, 18 h) | Colony Color ([3]; psae 15442, 21 h) | Colony Color ([3]; psae 33607, 18 h) | Colony Color ([3]; psae 33607, 21 h) | Colony Color (milu 9341; CO2, 21 h) | Colony Color (cakr 34135; CO2, 18 h) | Colony Color (cakr 34135; CO2, 21 h) | Colony Color (Summary) [4, 14] | Colony Color ([4]; klpn 13883, CO2, 18 h) | Colony Color ([4]; klpn 13883, CO2, 21 h) | Colony Color ([4]; klpn 33495, CO2, 24 h) | Colony Color ([4]; klpn 33495, air, 24 h) | Colony Color ([4]; klpn 33606, CO2, 18 h) | Colony Color ([4]; klpn 33606, CO2, 21 h) | Colony Color (Summary) (Salmonella spp. (sasp); [13]) | Colony Color (Salmonella spp. (sasp); saty 19430, 18 h) | Colony Color (Salmonella spp. (sasp); saty 19430, 21 h) | Colony Color (Salmonella spp. (sasp); satym 14028, 18 h) | Colony Color (Salmonella spp. (sasp); satym 14028, 21 h) | Colony Color (Summary) (S pyogenes (stpy); [16]) | Colony Color (S pyogenes (stpy); stpy 1027, CO2) | Colony Color (S pyogenes (stpy); stpy 1028, CO2) | Colony Color (S pyogenes (stpy); stpy 1029, CO2) | Colony Color (S pyogenes (stpy); stpy 1030, CO2) | Colony Color (S pyogenes (stpy); stpy 19615, CO2) | Colony Color (S pyogenes (stpy); stpy 19615, air) | Colony Color (S pyogenes (stpy); stpy 49117, CO2) | Colony Color (S pyogenes (stpy); stpy 49117, air) | Colony Color on Various Chromogenic TSA II with 5% Sheep Blood (S pyogenes (stpy); stpy 51339, CO2) | Colony Color (S pyogenes (stpy); stpy 51339, CO2) | Colony Color (S pyogenes (stpy); stpy 51339, air) | Colony Color on Various Chromogenic TSA II with 5% Sheep Blood (S pyogenes (stpy); stpy t027, CO2) | Colony Color on Various Chromogenic TSA II with 5% Sheep Blood (S pyogenes (stpy); stpy t028, CO2) | Colony Color on Various Chromogenic TSA II with 5% Sheep Blood (S pyogenes (stpy); stpy t029, CO2) | Colony Color on Various Chromogenic TSA II with 5% Sheep Blood (S pyogenes (stpy); stpy t030, CO2) | Colony Color (Summary) (S. pneumoniae (stpn); [16]) | Colony Color (S. pneumoniae (stpn); stpn 1259, CO2, 21 h) | Colony Color (S. pneumoniae (stpn); stpn 1260, CO2, 21 h) | Colony Color (S. pneumoniae (stpn); stpn 1331, CO2, 21 h) | Colony Color (S. pneumoniae (stpn); stpn 1628, CO2, 21 h) | Colony Color (S. pneumoniae (stpn); stpn 6303, CO2, 24 h) | Colony Color (S. pneumoniae (stpn); stpn 6303, air, 24 h) | Colony Color (S. pneumoniae (stpn); stpn 6305, CO2, 24 h) | Colony Color (S. pneumoniae (stpn); stpn 6305, air, 24 h) | Colony Color on Various Chromogenic TSA II with 5% Sheep Blood (S. pneumoniae (stpn); stpn t259, CO2) | Colony Color on Various Chromogenic TSA II with 5% Sheep Blood (S. pneumoniae (stpn); stpn t260, CO2) | Colony Color on Various Chromogenic TSA II with 5% Sheep Blood (S. pneumoniae (stpn); stpn t628, CO2) | Colony Color (Summary) [5, 14] | Colony Color ([5]; stag 4768, CO2, 21 h) | Colony Color ([5]; stag 4768, air, 21 h) | Colony Color ([5]; stag 12386, CO2, 21 h) | Colony Color ([5]; stag 12386, CO2, 24 h) | Colony Color ([5]; stag 12386, air, 24 h) | Colony Color (Summary) ([9]; chromogenic TSA II with 5% Sheep Blood, 0.1 g/l, 5 strains tested) | Colony Color ([9]; stau 1006, CO2, 21 h) | Colony Color ([9]; stau 1007, CO2, 21 h) | Colony Color ([9]; stau 1008, CO2, 21 h) | Colony Color ([9]; stau 1009, CO2, 21 h) | Colony Color ([9]; stau 25923, CO2, 18 h) | Colony Color ([9]; stau 25923, CO2, 24 h) | Colony Color ([9]; stau 25923, air, 24 h) | Colony Color on Various Chromogenic TSA II with 5% Sheep Blood ([9]; stau t006, CO2, 18 h) | Colony Color on Various Chromogenic TSA II with 5% Sheep Blood ([9]; stau t007, CO2, 18 h) | Colony Color on Various Chromogenic TSA II with 5% Sheep Blood ([9]; stau t008, CO2, 18 h) | Colony Color on Various Chromogenic TSA II with 5% Sheep Blood ([9]; stau t009, CO2, 18 h) | Colony Color ([11]; brca 25238, 18 h) | Colony Color ([11]; brca 25238, 21 h) | Colony Color ([11]; brca 25240, 21 h) | Colony Color (Summary) [11, 13]
ly: Colony Color (milu 9341; CO2, 18 h)
lb: Colony Color (E. faecium (enfu); CO2, 18 h) | Colony Color (E. faecium (enfu); air, 21 h)
db: Colony Color (E. faecium (enfu); CO2, 21 h) | Colony Color ([6]; aehy 7965, 18 h) | Colony Color ([6]; aehy 7966, 18 h) | Colony Color ([6]; aehy 49847, 18 h) | Colony Color ([7]; enfa 597, CO2, 18 h) | Colony Color ([7]; enfa 597, CO2, 21 h) | Colony Color ([7]; enfa 10741, CO2, 18 h) | Colony Color ([7]; enfa 10741, CO2, 21 h) | Colony Color ([7]; enfa 12953, CO2, 18 h) | Colony Color ([7]; enfa 12953, CO2, 21 h) | Colony Color ([7]; enfa 14506, CO2, 18 h) | Colony Color ([7]; enfa 14506, CO2, 21 h) | Colony Color ([7]; enfa 29212, CO2, 18 h) | Colony Color ([7]; enfa 29212, CO2, 21 h) | Colony Color ([7]; enfa 29212, CO2, 24 h) | Colony Color ([7]; enfa 29212, air, 24 h)
some precipitate was evident: Precipitate on plates after 1 week [1]
X-Acglmn (TSA II: Substrates Producing Color ([10]; Summary of Table I, S. pneumoniae 6303)
<grth: Growth vs. control (S. milleri (stmi); [12]) | Growth vs. control (S pyogenes (stpy); [12]) | Growth vs. control (S. pneumoniae (stpn); [12])
gb: Colony Color (Candida albicans (caal); caal 10231, CO2, 24 h) | Colony Color ([6]; aehy 7965, 21 h) | Colony Color ([6]; aehy 7966, 21 h) | Colony Color ([6]; aehy 49847, 21 h) | Colony Color ([8]; 18 h) | Colony Color ([8]; 21 h)
+: Colony Color (Summary) (Candida albicans (caal); [13]) | Colony Color (Summary) (E. faecium (enfu); [15]) | Colony Color (Summary) [6, 14] | Colony Color (Summary) [7, 16] | Colony Color (Summary) [8, 15]
vlgb: Colony Color ([4]; klpn 33495, CO2, 18 h)
drkr < muc: Colony Color on Various Chromogenic TSA II with 5% Sheep Blood (S. pneumoniae (stpn); stpn t331, CO2)
blue: Colony Color (Candida albicans (caal); one C. albicans) | Color ([10]; TSA II 5SB, S. pneu: 6303)

Reference: patent publication US20020086278A1, “CHROMOGENIC MEDIA CONTAINING BLOOD OR HEMIN” (priority 1999, published 2002)
